Laboratory results from US9408832B2, “LIM kinasemodulating agents for neurofibromatoses therapy and methods for screening for same” (University of Central Florida Research Foundation, Inc., priority 2012, dated 2016).
“And” between values parts separate entries of the source, which are not always exact repeats. Equal entries are not always repeated. “Also recorded” adds a separate entry of the source.

Assays:
caspase 3/7 activity = assay: Caspase-3/7 activity (Apo-ONE Homogeneous Assay) in merlin-null Schwann cells; assay type: cell-based, mouse; details: for mechanism of apoptotic death in context of the Apo-One assay result: 384-well format, 8 hours
Description: (§1) FIGS. 10 A-C. Phenotypic Apoptosis Assays. (A). Merlin-null Schwann cells in a 384-well format were incubated with the indicated compounds for 8 hours. Caspase-3/7 activity was measure with Apo-ONE Homogeneous Assay (Promega). n=32 wells. (B). Merlin-null Schwann cells in a 6-well format were treated with compounds (10 uM) for 24 hours. Membrane asymmetry was detected with Violet Ratiometric assay and read on a BD Cantos II flow cytometer. (C). Population distribution for B is shown.
In yet another aspect, compounds may be identified which induce programmed cell death or inhibit proliferation of Merlin-null Schwann cells. Merlin-pathway assays may be conducted to identify the subset of compounds that modulate the activity of known merlin pathways. The effector caspase cascade is activated in many extrinsic and intrinsic cell death pathways^29. The CPCCG has an established HTS assay that measures caspase-3 activity based on the cleavage and enzymatic degradation of a fluorescent substrate containing the amino acid motif DEVD (DEVD-7-amino-4-trifluoromethyl coumarin, DEVD-AFC). Briefly, Merlin-null Schwann cells may be dispensed and test compounds added, and incubated as described for the primary screening assay. The effect of compounds on caspase-3 activity can be measured by first lysing the cells and centrifuging to pellet the debris. Next, 20 μl of 2× reaction buffer may be added, followed by 1 μL, DTT (0.01M final). Finally, 1uL of DEVD-AFC may be added and the plate may be incubated at 37° C. for 1.5 h. Enzyme activity may be measured on an Envision plate reader at Ex400 nm/Em505 nm. The enzyme activity may be calculated from a standard curve generated using recombinant caspase-3 enzyme (R&D System, Inc.) and expressed as fold-increase in activity. […] Transfer of phosphatidylserine and phosphatidylethanolamine from the inner to the outer leaflet of the plasma membrane changes the membrane potential that is detected by F2N12S. […]

[1] = tested on: mouse merlin-null Schwann cells; assay: BrdU/7-AAD flow cytometry assay; assay type: cell-based
Description: (§2) FIGS. 11A-D. Phenotypic Proliferation Assays. (A) Merlin-null Schwann cells (384-well format) were treated with the indicated compounds and concentrations for 24 hours and labeled with EdU during the last 9 hours. Incorporation of EdU into S-phase cells was read on a Biotek H1 Hybrid reader. (B) The plate was also imaged with a Trophos high resolution fluorescence Plate Runner. (C). […] The cell population profile is shown and was analyzed using the ModFit program. (D). Merlin-null Schwann cells were grown as in C but were labeled with BrdU during the final 3 hours of treatment then stained with 7AAD. The distribution of BrdU- and 7AAD-labelled cells is shown and was analyzed with Diva program. The BD Cantos II flow cytometer was used above.
In yet another aspect, identification of compounds that affect proliferation of Merlin-null mouse Schwann cells can be performed by conducting a Click-iT EdU Microplate Assay (Life Technologies) in the 384 well-plate format and then follow-up with BrdU/7AAD and propidium iodide flow cytometer assays. […] The EdU-Click-iT assay uses a 2-step procedure to identify cells in the S-phase of the cell cycle. EdU (5-ethynyl-2′-deoxyuridine) is a DNA analog that has been modified with an alkyne and is incorporated by cells in S phase. It reacts with Alexa-Fluor-Oregon green azide in the presence of a copper solution to form a covalent bond. Fluorescence emission is measured on a Hybrid HT plate reader (FIG. 11A) as well as on a Trophos Plate RUNNER HD that captures images of the wells (FIG. 11B). This allows confirmatory cell counts to be obtained. Cell cycle profiles were collected using propidium iodide (PI) labeling of log-phase growing Merlin-null Schwann cells (FIG. 11C). The results were confirmed by acquiring the ratio of BrdU-positive to total 7AAD-labelled cells in an independent assay (FIG. 11D).

[2] = tested on: cofilin phosphorylation (substrate for LIMK); assay: Western blot of cofilin phosphorylation in normal rat Schwann cells; assay type: cell-based; details: 6 hours
[3] = tested on: mouse merlin-null Schwann cells; assay: Violet Ratiometric membrane asymmetry / dead cell apoptosis flow cytometry assay; assay type: cell-based; details: 24 hours
Description: as §1
In yet another aspect, compounds may be identified which induce programmed cell death or inhibit proliferation of Merlin-null Schwann cells. Merlin-pathway assays may be conducted to identify the subset of compounds that modulate the activity of known merlin pathways. The effector caspase cascade is activated in many extrinsic and intrinsic cell death pathways^29. […] The effect of compounds on caspase-3 activity can be measured by first lysing the cells and centrifuging to pellet the debris. […] Enzyme activity may be measured on an Envision plate reader at Ex400 nm/Em505 nm. The enzyme activity may be calculated from a standard curve generated using recombinant caspase-3 enzyme (R&D System, Inc.) and expressed as fold-increase in activity. […] Transfer of phosphatidylserine and phosphatidylethanolamine from the inner to the outer leaflet of the plasma membrane changes the membrane potential that is detected by F2N12S. […]

[4] = tested on: mouse merlin-null Schwann cells; assay: Crystal Violet cell number assay; assay type: cell-based
[5] = tested on: mouse merlin-null Schwann cells; assay: Propidium iodide flow cytometry cell cycle assay; assay type: cell-based
Description: as §2
In yet another aspect, identification of compounds that affect proliferation of Merlin-null mouse Schwann cells can be performed by conducting a Click-iT EdU Microplate Assay (Life Technologies) in the 384 well-plate format and then follow-up with BrdU/7AAD and propidium iodide flow cytometer assays. […] The EdU-Click-iT assay uses a 2-step procedure to identify cells in the S-phase of the cell cycle. […] Fluorescence emission is measured on a Hybrid HT plate reader (FIG. 11A) as well as on a Trophos Plate RUNNER HD that captures images of the wells (FIG. 11B). […]

cofilin phosphorylation = assay: Cofilin phosphorylation in mouse Schwann cells (summary statement); assay type: cell-based
[6] = tested on: mouse merlin-null Schwann cells; assay: MultiTox-Fluor cell viability assay with merlin-null Schwann cells (NF2-MTC)
Description: To ascertain whether this cell line was amenable to a HTS platform, the present inventors tested cell adherence and growth on several types of 384-well plates. Wells were seeded at varying cell densities (2,500-20,000 cells/well) and the ratio of live:dead cells was measured 24 hours later using the MultiTox-Fluor Multiplex Cytotoxicity Assay (Promega). This assay uses fluorescent probes to measure protease activities from live and dying cells. […] Therefore, the DMSO concentration for screening will be maintained at 0.5%.

[7] = 5 μM, 24 hr, BrdU for the last 3 hr

SMILES: N#C/C(=C\c1ccc(-c2cc(Cl)ccc2Cl)o1)C(=O)Nc1cccc2ncccc12 [AGK2]
- mechanism of apoptotic death in context of the Apo-One assay result (caspase 3/7 activity): caspase3/7-independent
- anti-proliferative effects on the cells ([1]; 24 hours of drug treatment, S-phase labelling for the final 3 hours): did not reveal clear anti-proliferative effects

SMILES: CC(C)C(=O)Nc1ncc(-c2cc(C(F)F)nn2-c2c(Cl)cccc2Cl)s1 [BMS-5]
- IC50 ([2]; Western blot, read-out: amount needed to reduce cofilin phosphorylation by 50% of the untreated control): 200 nM
- cofilin phosphorylation (dose response, in words) ([2]; increasing BMS-5): reduces the amount of cofilin phosphorylation; also recorded: cofilin phosphorylation decreases
- mechanism of apoptotic death in context of the Apo-One assay result (caspase 3/7 activity): caspase3/7-independent
- difference in caspase 3/7 activity versus untreated or DMSO controls (caspase 3/7 activity; 8 hours incubation, increasing doses): no significant difference
- number of cells with plasma membrane asymmetry ([3]; 2 μM): does not significantly increase
- change in the number of cells after 72 hours ([4]; 2 μM): no change
- cell number compared to untreated or DMSO controls ([4]; 1 and 2 μM, 72 hours): decrease in the cell number
- increase of cells in G2/M phase ([5]; 5 μM, 17 hr, Propidium Iodine staining): more than 100%
- cell cycle profile (PI labeling and BrdU profiles, in words) ([5]; 5 uM, 22 hours): accumulate in G2/M
- cells in G0/G1 and S phase [1, 7]: massive depletion
- number of cells in G2/M [1, 7]: moderate increase; also recorded: moderately increase
- cofilin phosphorylation in mouse Schwann cells (in words) (cofilin phosphorylation): reduced cofilin phosphorylation
- MTC number / proliferation with increasing concentration (in words) ([6]; 24 hours, various inhibitor concentrations): inhibited proliferation; also recorded: dose-respondent inhibition
- MTC viability compared to DMSO control (in words) ([6]; BMS-5 5 μM, 24 hours): reduced MTC viability
- EC50 ([6]; read-out: EC50: concentration that reduces the number of merlin-null Schwann cells by 50% of control, 24 hours, 96-well format, 32 replicates/concentration): 1960 nM and ~2000 nM

SMILES: COc1ccc2c(c[n+](C)c3c4cc5c(cc4ccc23)OCO5)c1OC.[Cl-] [CHE, cheleryithrine chloride]
- apoptotic death (Q1+Q3), share of Merlin-null Schwann cells ([3]; 10 uM, 6-well format, flow cytometer): 93%

SMILES: FC(F)(F)c1ccc(/C=C/c2nc(COc3ccc(CCCCn4ccnn4)cc3)co2)cc1 [TAK 165]
- MTC viability compared to DMSO control (in words) ([6]; TAK 165 50 nM, positive control): effective in reducing MTC viability

SMILES: CO[C@H]1C[C@@H]2CC[C@@H](C)[C@@](O)(O2)C(=O)C(=O)N2CCCC[C@H]2C(=O)O[C@H]([C@H](C)C[C@@H]2CC[C@@H](O)[C@H](OC)C2)CC(=O)[C@H](C)/C=C(\C)[C@@H](O)[C@@H](OC)C(=O)[C@H](C)C[C@H](C)/C=C/C=C/C=C/1C [rapamycin, Rapamycin]
- viability of cells, % of the DMSO control ([6]; 50 μM rapamycin, 384-well plate, 5,000 cells/well): 20+/−1.4%
